Tested on: THP-1 cells
Experiment: Inhibition of heme-stimulated thermogenesis (FPT) in THP-1 cells
Assay type: cell-based, human
Conditions: 4 μM thapsigargin 2 hours, then 40 μM heme one hour
Experimental: FIGS. 5A-5F show MFSD7C and heme regulate thermogenesis through SERCA2b in THP-1 cells. […] 30 hours later, MG132 was added into half of the cells and the other half was not treated. Another 35 hours later, some cells were treated with 40 μM heme for 1 hour before lysis. Cell lysates were immunoprecipitated with anti-FLAG antibody, and eluted, followed by anti-HA immunoprecipitation and elution. Total cell lysate and elute were subjected to Western blotting and probed with anti-SERCA2b or anti-MFSD7C antibodies. Shown are representative data from one of three experiments. […] 24 hrs later, cells were either not treated or treated with 10 μM MG132 for either 6 or 12 hours. The cells were lysed and subjected to FLAG pull-down and blotted with anti-MFSD7C, anti-SERCA2b and anti-ubiquitin antibodies. Shown are representative data from one of three experiments. […] Parental THP-1 cells were either not treated or treated with heme before lysis. Shown are representative data from one of four experiments. […]
FIGS. 16A-16F show Co-localization of MFSD7C and SERCA2b. […] Co-localization between MFSD7C and SERCA2b was quantified. […] P-values were calculated using unpaired t-test (***p<0.05). […]
In the second approach, we used fluorescent polymeric thermometer (FPT), which we synthesized in-house (see above). […] Then the fluorescence intensities were determined by a flow cytometer.

SMILES: C/C=C(/C)C(=O)O[C@H]1C(C)=C2[C@H]([C@@H]1OC(=O)CCCCCCC)[C@@](C)(OC(C)=O)C[C@H](OC(=O)CCC)[C@@]1(O)[C@H]2OC(=O)[C@@]1(C)O [thapsigargin]
- heme-stimulated thermogenesis: mostly inhibited
